According to the supplement of paper PMC10307832:

Tests used:
Assay in all cases: relative viability (nuclei count vs DMSO), 5 days (fraction); higher = more cells survive
RO-3306 + Pictilisib = compound: C1=CC2=C(C=CC(=C2)C=C3C(=O)NC(=NCC4=CC=CS4)S3)N=C1 [RO-3306] + CS(=O)(=O)N1CCN(Cc2cc3nc(-c4cccc5[nH]ncc45)nc(N4CCOCC4)c3s2)CC1 [Pictilisib] (partner 1 µM)
How it was run: (§1)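 Relative viability was taken as the ratio of nuclei in treated wells to nuclei in vehicle wells. Lung cancer cell lines in 1536-well plates received compounds by pin tool one day after seeding, either one drug alone or a fixed anchor-drug dose plus five library-drug doses (not always all listed) in √10 steps. Nuclei were counted on 4× images after 5 days of treatment, and values are medians of duplicate plates.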

RO-3306 + Linsitinib = compound: C1=CC2=C(C=CC(=C2)C=C3C(=O)NC(=NCC4=CC=CS4)S3)N=C1 [RO-3306] + C[C@]1(O)C[C@@H](c2nc(-c3ccc4ccc(-c5ccccc5)nc4c3)c3c(N)nccn32)C1 [Linsitinib] (partner 1 µM)
How it was run: as §1

[1] = compound: O=S(=O)(c1ccccc1)N(CC(F)(F)F)c1ccc(C(O)(C(F)(F)F)C(F)(F)F)cc1 + CC(C)C[C@H](NC(=O)[C@H](Cc1ccccc1)NC(=O)c1cnccn1)B(O)O [Bortezomib] (partner 0.002 µM)
How it was run: as §1

[2] = compound: O=S(=O)(c1ccccc1)N(CC(F)(F)F)c1ccc(C(O)(C(F)(F)F)C(F)(F)F)cc1 + CCNC(=O)c1noc(-c2cc(C(C)C)c(O)cc2O)c1-c1ccc(CN2CCOCC2)cc1 [Luminespib] (partner 0.01 µM)
How it was run: as §1

Cell Line	relative viability (RO-3306 + Pictilisib; first compound 0.01 µM)	relative viability (RO-3306 + Pictilisib; first compound 0.03162 µM)	relative viability (RO-3306 + Pictilisib; first compound 0.1 µM)	relative viability (RO-3306 + Pictilisib; first compound 0.3162 µM)	relative viability (RO-3306 + Pictilisib; first compound 1 µM)	relative viability (RO-3306 + Linsitinib; first compound 0.01 µM)	relative viability (RO-3306 + Linsitinib; first compound 0.03162 µM)	relative viability (RO-3306 + Linsitinib; first compound 0.1 µM)	relative viability (RO-3306 + Linsitinib; first compound 0.3162 µM)	relative viability (RO-3306 + Linsitinib; first compound 1 µM)	relative viability ([1]; first compound 0.8 µM)	relative viability ([1]; first compound 2.53 µM)	relative viability ([1]; first compound 8 µM)	relative viability ([2]; first compound 0.8 µM)	relative viability ([2]; first compound 2.53 µM)	relative viability ([2]; first compound 8 µM)
HOP-62	0.898	0.564	0.759	0.686	0.471	0.951	0.985	0.892	0.978	0.973	0.39	0.634	0.93	0.903	0.907	0.862
IA-LM	0.339	0.242	0.311	0.278	0.36	0.559		0.56	0.571	0.809	0.727	0.522	0.77			
LC-2-ad	0.43	0.275	0.377	0.488	0.428	0.902	0.757	0.813	0.833	0.817	1.02	1.03	0.898	0.898	0.892	0.864
LCLC-97TM1		0.18	0.165	0.254	0.183		0.167	0.203	0.202	0.162	0.397	0.457	0.723	0.716	0.744	0.682
LCLC-103H	0.461	0.556	0.561	0.655	0.608	1.03	0.934	1.16	1.05	1.05	1.18	1.04	1.12	1.07	0.862	0.845
LK-2	0.482	0.499	0.64	0.681	0.534	0.552	0.495	0.635	0.425	0.554				0.175	0.174	0.227
LOU-NH91	0.512	0.528	0.522	0.533	0.406	0.982	0.899	0.982	0.864	0.899	0.536	0.51	0.484	0.404	0.353	0.285
LU99A	0.33	0.292	0.343	0.284	0.295	0.561	0.489	0.515	0.525	0.495	1.34	1.17	1.16	0.332	0.226	0.185
LXF-289	0.781	0.677	0.806	0.805	0.774	1.08	0.913	0.969	0.957	0.961	0.952	0.899	0.898	0.858	0.559	0.641
NCI-H23	0.507	0.468	0.433	0.451	0.433	0.774	0.443	0.633	0.514	0.569	1.45	1.23	1.09	0.2	0.206	0.255
NCI-H322M	0.493	0.486	0.485	0.556	0.585	0.978	0.709	0.923	1.02	1.03	1.48	1.02	1.23	1.13	0.946	1
NCI-H358	0.308	0.387	0.319	0.321	0.31	0.827	0.642	0.656	0.892	0.517				0.195	0.332	0.352
NCI-H441	0.491	0.332	0.387	0.607	0.451	0.53	0.385	0.479	0.554	0.405	0.737	0.479	0.597	0.317	0.37	0.372
NCI-H460	0.388	0.374	0.371	0.329	0.32	1.14		0.901	1.3	0.889	1.29	1.03	1.02	0.034	0.0266	0.0324
NCI-H522														1.39	1.27	1.07
NCI-H1299	0.873	0.854	0.833	0.796	0.649	1.1	0.913	1.03	1.12	1.08	1.02	0.981	0.946			
NCI-H1395	0.589	0.911	0.547	0.644	0.753	1.1	0.954	1.06	1.02	1.04				0.75	0.701	0.714
NCI-H1623														0.625	0.411	0.491
NCI-H1650	0.491	0.503	0.48	0.583	0.414						0.203	0.187	0.194	0.184	0.2	0.231
NCI-H1703	0.241	0.221	0.237	0.241	0.254	1.04	0.409	0.598	0.22	0.681	0.389	0.185	0.381			
NCI-H1793	0.402	0.276	0.34	0.258	0.389	1.1	0.624	0.931	1.05	1.01				0.162	0.149	0.172
NCI-H1944	0.283	0.299	0.313	0.368	0.325	1.22	1.07	1.08	1.36	1.17				0.946	0.786	0.68
NCI-H2170	0.292	0.303	0.305	0.312	0.334									0.855	0.474	0.489
NCI-H2342														0.809	0.782	0.628
SK-MES-1	0.324	0.334	0.353	0.413	0.355	1.14	0.859	1.16	1.16	1.15				0.677	0.744	0.533
SW 900														0.181	0.192	0.172
